Key:
[1] = 101.3 kPa, Liquid
[2] = xn = mol fraction of the nth substance listed; details: 101.3 kPa, Liquid

C1CCCCC1 [cyclohexane]
[1]
Details	mass density [kg/m3]	viscosity [mPa·s]
298.15 K	773.9	0.8945
303.15 K	768.6	0.8284
308.15 K	761.2	0.7637

C1CCCCC1 [cyclohexane] + O=C1CCCCC1
[2], x1 = 1
Details	mass density [kg/m3]	viscosity [mPa·s]
298.15 K	773.9	0.8945
303.15 K	768.6	0.8284
308.15 K	761.2	0.7637

C1CCCCC1 [cyclohexane] + O=[N+]([O-])c1ccccc1
[2], x1 = 1
Details	mass density [kg/m3]	viscosity [mPa·s]
298.15 K	773.9	0.8945
303.15 K	768.6	0.8284
308.15 K	761.2	0.7637

O=C1CCCCC1 [cyclohexanone]
[1]
Details	mass density [kg/m3]	viscosity [mPa·s]
298.15 K	941	2.021
303.15 K	937.4	1.806
308.15 K	936.5	1.585

O=C1CCCCC1 [cyclohexanone] + C1CCCCC1
[2]
Details	mass density, 298.15 K [kg/m3]	mass density, 303.15 K [kg/m3]	mass density, 308.15 K [kg/m3]	viscosity, 298.15 K [mPa·s]	viscosity, 303.15 K [mPa·s]	viscosity, 308.15 K [mPa·s]
x2 = 0	941	937.4	936.5	2.021	1.806	1.585
x2 = 0.0964	921.6	917.9	916.6	1.852	1.661	1.485
x2 = 0.2003	901.3	897.6	895.7	1.682	1.522	1.384
x2 = 0.2916	883.8	880.2	878.3	1.541	1.406	1.296
x2 = 0.3895	866	862.8	860.3	1.403	1.294	1.203
x2 = 0.4894	–	845.5	842.6	–	1.184	1.112
x2 = 0.4895	848.9	–	–	1.275	–	–
x2 = 0.5886	–	828.7	825.6	–	1.084	1.025
x2 = 0.5887	832.5	–	–	1.163	–	–
x2 = 0.6957	815.4	811.6	807.5	1.063	0.9925	0.9408
x2 = 0.7951	800.3	796.3	791.3	0.9917	0.9237	0.8704
x2 = 0.8968	–	781.8	775.5	–	0.8707	0.8101
x2 = 0.8969	786.5	–	–	0.9386	–	–

O=C1CCCCC1 [cyclohexanone] + O=[N+]([O-])c1ccccc1
[2], x1 = 1
Details	mass density [kg/m3]	speed of sound [m/s]	viscosity [mPa·s]
298.15 K	941	1847.7	2.021
303.15 K	937.4	–	1.806
308.15 K	936.5	–	1.585

O=[N+]([O-])c1ccccc1 [nitrobenzene]
[1]
Details	mass density [kg/m3]	speed of sound [m/s]	viscosity [mPa·s]
298.15 K	1198.5	1648.4	1.686
303.15 K	1193.6	–	1.619
308.15 K	1191.1	–	1.554

— the NIST ThermoML archive (doi:10.1021/je049661s)
